What follows are compounds tested against Induced myeloid leukemia cell differentiation protein Mcl-1 (Homo sapiens, UniProt Q07820) (assay: Mcl-1/Bim interaction regulators – biochemical, bead-based flow cytometry, multiplexed, human, dose response (AID 1329)). Details: not given.
Sequence of Induced myeloid leukemia cell differentiation protein Mcl-1 (Q07820 whole entry): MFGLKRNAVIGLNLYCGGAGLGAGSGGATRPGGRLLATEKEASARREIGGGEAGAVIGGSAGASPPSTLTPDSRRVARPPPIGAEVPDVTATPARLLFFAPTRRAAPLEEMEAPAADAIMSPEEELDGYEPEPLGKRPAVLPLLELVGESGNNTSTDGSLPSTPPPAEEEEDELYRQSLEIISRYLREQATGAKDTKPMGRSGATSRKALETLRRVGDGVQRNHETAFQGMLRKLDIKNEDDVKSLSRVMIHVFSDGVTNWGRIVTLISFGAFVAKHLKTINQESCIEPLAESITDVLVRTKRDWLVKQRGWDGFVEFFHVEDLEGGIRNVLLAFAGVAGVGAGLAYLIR
`CN1CCc2cccc3c2[C@@H]1Cc1ccc(O)c(O)c1-3` was tested, and the EC50 was 38.6 µM.
In the case of `CCC(/C=C1\Sc2ccc(OC)cc2N1CCO)=C\c1sc2ccc(OC)cc2[n+]1CCO`, the EC50 is reported as 19.3 µM.
With `Cc1nc2ncccn2c1-c1csc(Nc2ccc(O)cc2)n1` the EC50 was 0.39 µM.
`c1ccc(-c2nc(N3CCOCC3)[s+]n2-c2ccccc2)cc1` was tested, and the EC50 was 9.74 µM.
`COc1cc(CN=Nc2nn3cnnc3c3ccccc23)ccc1O` [(4E)-2-methoxy-4-[[2-([1,2,4]triazolo[3,4-a]phthalazin-6-yl)hydrazinyl]methylidene]cyclohexa-2,5-dien-1-one] gave an EC50 of 5.05 µM.
`COc1cccc2c(SCC(=O)NN=Cc3ccc(O)cc3O)cc(C)nc12` [N'-[(E)-(2-hydroxy-4-oxo-1-cyclohexa-2,5-dienylidene)methyl]-2-[(8-methoxy-2-methyl-4-quinolinyl)thio]acetohydrazide] gave an EC50 of 29 µM.
`COc1cc(C=NNC(=O)CN(Cc2ccco2)S(=O)(=O)c2ccccc2)ccc1O` [N-(2-furanylmethyl)-N-[2-[[(E)-(3-methoxy-4-oxo-1-cyclohexa-2,5-dienylidene)methyl]hydrazo]-2-oxoethyl]benzenesulfonamide] showed an EC50 of 11.4 µM.
With `Cc1ccc(-c2nc(N3CCOCC3)s[n+]2-c2ccccc2)cc1` [SMR000225370] the EC50 was 2.04 µM.
`Nc1c(C(=O)NCC2CCCO2)sc2nc3c(c(-c4ccco4)c12)CC/C3=C\c1ccco1` (stereo unspecified) [SMR000259502] gave an EC50 of 6 µM.
With `Nc1c(C(=O)NC2CC2)sc2nc3c(c(-c4ccco4)c12)CC/C3=C/c1ccco1` [SMR000259554] the EC50 was 5.86 µM.
`Cc1nnc2ccc(-c3cccc(NC(=O)c4ccco4)c3)nn12` [SMR000324305] showed an EC50 of 5.76 µM.
For `CCN1/C(=C/C(C)=C/c2sc3ccccc3[n+]2CC)Sc2ccccc21` [SMR000354813], the EC50 was 41.2 µM.

Same assay, conditions: inactive by the depositor's call
`CCOCCCNc1nc(S)nc2cc(OC)c(OC)cc12` was tested, and the EC50 was 2.54 µM.
For `COCCNc1[nH]c(=S)nc2cc(OC)c(OC)cc12`, the EC50 was 4.54 µM.
`CN1CCN(C2=C(Cl)C(=O)C(c3cnc(N4CCCCC4)s3)=C(Cl)C2=O)CC1` gave an EC50 of 0.7 µM.
`CCOC(=O)c1ccc(Nc2nc(C(=O)OCC)nc3ccccc23)cc1` showed an EC50 of 4.52 µM.
`CCOCCCn1c(N)c(C(=O)Nc2sc3c(c2C(=O)OC)CCCC3)c2nc3ccccc3nc21` gave an EC50 of 1.85 µM.
With `CCN1C(=O)/C(=C/C=C2\C=CN(CC)c3ccccc32)SC1=S` the EC50 was 15.8 µM.
Work on `Cc1ccc(-c2ccc(/C=C/C(=O)c3ccccc3)o2)cc1` yielded an EC50 of 13.2 µM.
Work on `O=S1(=O)N=C(N(CCO)N=C/C=C/c2ccccc2)c2ccccc21` yielded an EC50 of 20.9 µM.
Work on `COc1ccc(-n2c(=O)c3ccccc3c3ccccc3c2=O)c(OC)c1` yielded an EC50 of 26.9 µM.
Compound `COc1cc2nc(=S)n(CCCN3CCOCC3)c(N)c2cc1OC` has an EC50 of 6.14 µM.
With `CN(C)c1ncc(C2=C(Cl)C(=O)C(N3CCCC3)=C(Cl)C2=O)s1` the EC50 was 3.71 µM.
For `O=C(Nc1ccc2nc(-c3ccco3)c(-c3ccco3)nc2c1)N1CCN(c2ccccn2)CC1`, the EC50 was 10.9 µM.
`O=C(c1ccccc1)c1ccc2nc(-c3ccco3)c(-c3ccco3)nc2c1` gave an EC50 of 45.4 µM.
`COCCNC(=S)Nc1cc(OC)c(OC)cc1C#N` [1-(2-cyano-4,5-dimethoxy-phenyl)-3-(2-methoxyethyl)thiourea] was tested, and the EC50 was 7.11 µM.
`Cc1ccc(C(=O)/C=C/c2ccc(-c3ccc(C)cc3)o2)cc1` [1-p-Tolyl-3-(5-p-tolyl-furan-2-yl)-propenone] showed an EC50 of 2.61 µM.
Work on `O=C(NCc1ccccc1)c1ccc2nc(-c3ccco3)c(-c3ccco3)nc2c1` [2,3-bis(furan-2-yl)-N-(phenylmethyl)quinoxaline-6-carboxamide] yielded an EC50 of 7.82 µM.
Compound `O=C(Nc1ccccc1)c1ccc2nc(-c3ccco3)c(-c3ccco3)nc2c1` [2,3-di-2-furyl-N-phenyl-6-quinoxalinecarboxamide] has an EC50 of 39.6 µM.
`O=C(CSc1ccc2nnc(-c3ccccn3)n2n1)Nc1nccs1` [2-[[3-(2-pyridinyl)-[1,2,4]triazolo[4,3-b]pyridazin-6-yl]thio]-N-(2-thiazolyl)acetamide] gave an EC50 of 11.8 µM.
For `O=C(/C=C/c1ccccc1Cl)c1ccccc(=O)c1O` [3-[(E)-3-(2-chlorophenyl)prop-2-enoyl]-2-oxidanyl-cyclohepta-2,4,6-trien-1-one], the EC50 was 19.4 µM.
Work on `Cc1nc2ncccn2c1-c1csc(Nc2ccccc2)n1` [4-(2-methyl-3-imidazo[1,2-a]pyrimidinyl)-N-phenyl-2-thiazolamine] yielded an EC50 of 8.97 µM.
In the case of `Cc1cc(C)nc(SCc2cc(=O)c(OC(=O)c3ccc(Cl)c([N+](=O)[O-])c3)co2)n1` [4-chloro-3-nitrobenzoic acid [6-[[(4,6-dimethyl-2-pyrimidinyl)thio]methyl]-4-oxo-3-pyranyl] ester], the EC50 is reported as 5.92 µM.
Work on `COc1cc2nc(=S)[nH]c(NCC3CCCO3)c2cc1OC` (stereo unspecified) [6,7-dimethoxy-4-(2-oxolanylmethylamino)-1H-quinazoline-2-thione] yielded an EC50 of 1.9 µM.
In the case of `COc1ccc(C2=Nn3c(nnc3-c3ccco3)SC2)cc1OC` [6-(3,4-Dimethoxy-phenyl)-3-furan-2-yl-7H-[1,2,4]triazolo[3,4-b][1,3,4]thiadiazine], the EC50 is reported as 2.94 µM.
`CN(N=C/C=C/c1ccccc1)C1=NS(=O)(=O)c2ccccc21` [(1E,2E)-3-phenylacrylaldehyde (1,1-dioxido-1,2-benzisothiazol-3-yl)(methyl)hydrazone] was tested, and the EC50 was 5.53 µM.
`O=C1/C(=C\c2ccc(-c3ccccc3Cl)o2)SC(=S)N1CC1CCCO1` (stereo unspecified) [(5E)-5-[[5-(2-chlorophenyl)furan-2-yl]methylidene]-3-(oxolan-2-ylmethyl)-2-sulfanylidene-1,3-thiazolidin-4-one] gave an EC50 of 2.14 µM.
In the case of `O=C(/C=C\c1ccc(-c2ccccc2)o1)c1ccccc1` [(Z)-1-phenyl-3-(5-phenyl-2-furanyl)-2-propen-1-one], the EC50 is reported as 20.7 µM.
`Cc1cc(-c2nnc3n2N=C(c2ccc(-c4ccccc4)cc2)CS3)[nH]n1` [MLS000082991] was tested, and the EC50 was 9.39 µM.
`Cc1cc2n(c1)CCn1c(C)ccc1-2` [MLS000104384] showed an EC50 of 21 µM.
`Clc1nc(NCc2cccnc2)nc(N2CCOCC2)n1` [MLS000121154] was tested, and the EC50 was 16.9 µM.
In the case of `CCCCNc1[nH]c(=S)nc2cc(OC)c(OC)cc12` [MLS000520261], the EC50 is reported as 1.04 µM.
Compound `COCCCn1c(N)c(C(=O)Nc2sc3c(c2C(=O)OC)CCCC3)c2nc3ccccc3nc21` [MLS000595323] has an EC50 of 3.12 µM.
For `COc1cc2nc(=S)[nH]c(NCCc3ccc(S(N)(=O)=O)cc3)c2cc1OC` [MLS000674601], the EC50 was 0.36 µM.
Work on `COc1ccc(C)cc1-n1c(=O)c2ccccc2c2ccccc2c1=O` [MLS000682999] yielded an EC50 of 16 µM.
For `Fc1ccc(C2=Nc3cccc4cccc(c34)N2)cc1` [MLS000687139], the EC50 was 10.5 µM.
`Cc1ccnc(SCc2cc(=O)c(OC(=O)c3ccc(Cl)c([N+](=O)[O-])c3)co2)n1` [MLS000696790] gave an EC50 of 39.5 µM.
Work on `COc1ccc(/C=C/C(=O)c2cc(Br)ccc(=O)c2O)cc1` [MLS000702099] yielded an EC50 of 33.2 µM.
With `CCOC(=O)c1c(O)nc2ccc(Cl)c3c2c1-c1ccccc1C3=O` [MLS000704595] the EC50 was 9.29 µM.
For `c1ccc(Nc2cccc(Nc3ccccc3)n2)cc1` [N,N'-diphenyl-2,6-pyridinediamine], the EC50 was 12.2 µM.
`Cc1cccc(OCC(=O)NCC(=O)NN=Cc2cc(Br)ccc2OCc2ccccc2)c1` [N-[(5-bromanyl-2-phenylmethoxy-phenyl)methylideneamino]-2-[2-(3-methylphenoxy)ethanoylamino]ethanamide] was tested, and the EC50 was 7.78 µM.
For `COCCCNc1nc(S)nc2cc(OC)c(OC)cc12` [SMR000026607], the EC50 was 1.74 µM.
For `Cc1cc2nn(-c3cccc4ccccc34)nc2cc1N` [SMR000076237], the EC50 was 1.75 µM.
Compound `C#CCn1cc(C=C2C(=O)c3ccccc3C2=O)c2ccccc21` [SMR000196125] has an EC50 of 16.3 µM.
With `CN(N=Cc1cccnc1)C1=NS(=O)(=O)c2ccccc21` [SMR000207578] the EC50 was 20.6 µM.
In the case of `Cc1ccc(C=NNC(=O)CSc2nnc(-c3ccc(Cl)cc3)n2-c2ccccc2)o1` [SMR000218122], the EC50 is reported as 5.71 µM.
`COc1ccc(OC)c(-n2c(=O)c3ccccc3c3ccccc3c2=O)c1` [SMR000236434] gave an EC50 of 16.7 µM.
For `O=C1c2ccccc2-c2onc3ccc(N4CCCC4)c1c23` [SMR000279741], the EC50 was 69.7 µM.
Compound `Cc1ccnc(Nc2nc(-c3c(C)nc4sccn34)cs2)c1` [[4-(6-Methyl-imidazo[2,1-b]thiazol-5-yl)-thiazol-2-yl]-(4-methyl-pyridin-2-yl)-amine] has an EC50 of 16.7 µM.
`CCOC(=O)c1nc(Nc2ccc(C(=O)OC)cc2)c2ccccc2n1` [ethyl 4-(4-methoxycarbonylanilino)quinazoline-2-carboxylate] gave an EC50 of 14.7 µM.
Work on `CN(N=Cc1ccncc1)C1=NS(=O)(=O)c2ccccc21` [isonicotinaldehyde (1,1-dioxido-1,2-benzisothiazol-3-yl)(methyl)hydrazone] yielded an EC50 of 2.74 µM.
